What was measured:
[1] = system: cytotoxicities caused by active oxygen species; details: background; cited from earlier work
Acute toxicity, oral = details: rat, in vivo, SD rats, seven-day observation
Protocol: Compounds of the invention suspended in 1% tragacanth was orally administered to SD rats (both male and female) and mortality (LD50) was determined after seven-day observation.

mice = assay: Passive avoidance response test (memory-improving activity, cycloheximide-treated mice); type: in vivo; details: Mus musculus; oral, 15 mice per group, cycloheximide 120 mg/kg s.c., latent time; read-out: Memory-Improving Activity, Minimum Effective Dose
Protocol: Passive avoidance response test was conducted in mice (15 animals per group) using light-dark differential apparatus of step-down type. The apparatus consisted of a dark room made of black and rigid vinylidene chloride resin [30 cm (depth)×30 cm (width)×31 cm (height)] and a light room, as an adjacent room, made of transparent rigid vinylidene chloride resin. The floor of the light room was set 2 cm higher than the grid surface of the dark room (step down type), and there was a guillotine door between the rooms. The animals were placed in the apparatus and acclimatized before test, and latent time for moving from the light room to the dark room was determined.
The acclimatized animals subcutaneously received 120 mg/kg of cycloheximide (Sigma) dissolved in physiological saline. After 30 minutes of the administration, the animals were placed in the light room. Immediatly after the movement of the animals to the dark room, electric current was applied on the grid (0.5 mA, 3 seconds), which gave the animals "aquired behavior". After 24 hours of the establishment of the aquired behavior, a test compound suspended in 1% tragacanth was administered orally to the animals, which were then returned to the light room. Control animals received only 1% tragacanth. The latent time until an individual animal started to move to the dark room was determined.

[2] = system: peroxidized lipid in rat brain homogenate; assay: Lipoperoxidation inhibitory activity in brain homogenate (TBA method); type: biochemical, Wistar male rats; details: 30 minutes at 37° C., final conc. 0.3-100 μM, read-out: Anti-lipoperoxidation Activity IC50
Protocol: Brain homogenate was prepared using Wistar male rats in accordance with the following procedure. […] A polyethylene tube was inserted into the aorta through the left ventricle, and fixed. Brain perfusion was conducted using ice-cooled 50 mM phosphate buffered saline (PBS), pH 7.4, through the tube, and whole brain was extracted. After removal of the cerebellum, the cerebrum was weighed while wet and homogenated by a Teflon homogenizer under ice-cooling, after addition of nine-fold by weight of PBS. The resultant homogenate was centrifuged at 4° C. (2200 r.p.m., 10 minutes), and an aliquot of the supernatant (0.3 ml) was placed in a light-resistant test tube with ground stopper and used for the following test.
To the brain homogenate obtained above were added PBS (0.6 ml) and an ethanol solution (10 μl) containing a predetermined amount of a test compound. Thus, each of the ethanol solutions was prepared so that the final concentration of the compound was 0.3-100 μM. The mixture was allowed to warm for 30 minutes at 37° C. (external bath temperature). […] (2600 r.p.m., 10 minutes). The resultant supernatant was used in the following quantitative analysis.
The aqueous mixture was heated in a boiling-water bath for 60 minutes and cooled rapidly. Distilled water (1.0 ml) and a mixture of pyridine and butanol (1:15) (5.0 ml) were added to the cooled mixture, and the latter was shaken for 30 seconds and centrifuged (3000 r.p.m., 10 minutes). The supernatant was used as a test sample for quantitative analysis of peroxidized lipid as mentioned below.

[3] = background, Iyakuhin Kenkyu 16, 1 (1985); cited from earlier work

Compound | activity as inhibitory agent for cytotoxicities (in words) [1] | LD50 at 168 h (Acute toxicity, oral) [mg/kg] | minimal effective dose (mice) [mg/kg] | IC50 [2] [µM] | inhibitory action on CNS (in words) [3]
O=C1O[C@H]([C@@H](O)CO)C(O)=C1O [Vitamin C] | very limited in their activities | – | – | – | –
Cc1[nH]c(=O)n(C)c1-c1ccc(C2CCCCC2)cc1 [compound 8] | – | > 1000 | 0.1 | 10 | –
Cc1[nH]c(=O)n(C)c1-c1ccc(-c2ccccc2)cc1 [compound 16] | – | > 1000 | 0.3 | 6.3 | –
CCN(CC)Cc1nccn1-c1ccc([N+](=O)[O-])cc1C(=O)c1ccccc1Cl [nizofenone] | – | – | – | – | strong inhibitory action on CNS
Vitamin E | very limited in their activities | – | – | – | –

Reference: patent publication US5116858A, “4-imidazoline derivatives” (Mitsubishi Kasei Corporation, priority 1989, dated 1992)
